Experimental data taken from patent US11059778B2, “Cannabinoid receptor CB2 ligand 4-(aminomethyl)-N, N-dialkylanilines” (UNIVERSITY OF PITTSBURGH—OF THE COMMONWEALTH SYSTEM OF …, priority 2015, dated 2021).
“Also recorded” adds a separate entry of the source.

Columns and labels:
[1] = biological target: T1, CHO cells expressing human CB2 receptors (Homo sapiens, UniProt P34972); test: cell-based LANCE cAMP assay; conditions: forskolin-stimulated, RO-20-1724 present, FIG. 4
T1 construct: expressed in transfected cells; host or cells: CHO cells, stably transfected
T1 sequence (P34972 whole entry): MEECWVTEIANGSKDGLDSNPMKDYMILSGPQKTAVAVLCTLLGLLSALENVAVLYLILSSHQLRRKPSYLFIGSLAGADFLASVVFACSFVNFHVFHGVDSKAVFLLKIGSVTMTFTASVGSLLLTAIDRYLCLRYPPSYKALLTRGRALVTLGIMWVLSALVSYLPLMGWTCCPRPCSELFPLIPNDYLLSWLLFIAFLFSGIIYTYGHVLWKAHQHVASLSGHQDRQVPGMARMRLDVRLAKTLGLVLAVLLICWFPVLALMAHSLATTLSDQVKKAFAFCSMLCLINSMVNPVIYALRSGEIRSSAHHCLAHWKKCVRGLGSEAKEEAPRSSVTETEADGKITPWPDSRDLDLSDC
Protocol: FIG. 4 relates to cAMP Assay Results. LANCE signal of CB2 ligands. Stably transfected CHO cells expressing human CB2 receptors were utilized to carry out the LANCE cAMP assay. […] Data is mean±SEM of all experiments of two or more performed in triplicate.
(§1) The antibodies are labeled with Alexa Fluor dye that is sensitive to energy emissions. Briefly, the cell-based LANCE cAMP assays were performed on 384-well ProxiPlates using CHO cells stably expressing the CB2 receptors at density of 2×10^3 cells per well in 5 μL of RPMI-1640 medium (Gibco Laboratories, Grand Island, N.Y.) containing 1% dialyzed FBS, 25 mM HEPES, […], and 200 μg/ml of […]. After incubation overnight, 2.5 μL of cAMP antibody and RO20-1724 (a phosphodiesterase inhibitor) in stimulation buffer (DPBS 1×, containing 0.1% BSA) was added to each well, followed by the addition of 2.5 μL of the compound plus the forskolin complex (an adenyl cyclase activator). After incubation at room temperature for 45 minutes, 10 μL of detection buffer was added into each well. The plate was then incubated at room temperature for 1 hour. The plate was then measured in a Synergy H1 hybrid reader (BioTek) with excitation at 340 nm and emission at 665 nm. The results represent at least two independent experiments each in triplicates. EC50 values were determined by nonlinear regression dose-response curve (GraphPad Prism 5).
as §1, with “Cyclic AMP levels were measured by performing the cell-based LANCE cAMP-384 kit assay (PerkinElmer) as previously described 13-14. The assay is based on the competition between the europium-labeled cAMP tracer complex and sample cAMP for binding sites on cAMP-specific antibodies. The antibodies” for “The antibodies”
The LANCE cAMP assay was carried out to measure the functional activities of our synthesized CB2 selective ligands as previously described 14. Briefly, the assay was performed on 384-well plates using CHO cells stably expressing CB2 receptors in the presence of phosphodiesterase inhibitor, RO-20-1724 and adenyl cyclase activator, forskolin.

[2] = system: RANKL-induced osteoclast differentiation of C57BL/6 mouse bone marrow cells; test: In-vitro osteoclast formation assay (RANKL-induced, TRAP staining); assay type: cell-based; conditions: for effect on RANKL-induced osteoclast formation (in words): RANKL 100 ng/mL, M-CSF 30 ng/mL, concentration series up to 10 μM, FIG. 5; for inhibition at 10 µM: Mus musculus, Osteoclast, read-out: inhibition rates of osteoclast formation
Protocol: FIGS. 5A and 5B relate to […]. Anti-osteoclastogenesis activity of the synthesized CB2 ligands. […] FIG. 5B: BM cells were seeded at a density of 2×10^5 cells/well in 96-well plates and treated with or without RANKL (100 ng/mL) and M-CSF (30 ng/mL). CB2 compounds were added at the indicated concentrations for 10 days and stained for TRAP expression. Data is the mean of three experiments carried out in triplicates. (B) Microscopic photographs of cells for compound 15 (magnification 100×).
Bone marrow (BM) cells were obtained from the tibia and femur of 4- to 6-week old C57BL/6 mice. To examine the effects of our selective CB2 ligands, BM cells were seeded at 2×10^5 cells/well in 96-well plates in 100 μIL/well Alpha-MEM media (Gibco Laboratories, Grand Island, N.Y.) containing 15% fetal bovine serum (FBS) (Gibco Laboratories, Grand Island, N.Y.), 30 ng/mL M-CSF (R&D Systems, USA), and 100 ng/mL RANKL (ProsPec, East Brunswick, N.J.). Plates were cultured for 7-10 days. Half media was changed every third day with or without CB2 ligands. At the end of the experiment, cells were fixed and stained with tartrate-resistant acid […] (TRAP) (Sigma-Aldrich, USA), according to manufacturer's protocol. TRAP-positive cells with ≥3 nuclei were counted as osteoclasts ((a) Feng, R., et al., SDX-308, a nonsteroidal anti-inflammatory agent, inhibits NF-kappaB activity, resulting in strong inhibition of osteoclast formation/activity and multiple myeloma cell growth. Blood 2007, 109 (5), 2130-8; (b) Yu, M., et al., Curcumol suppresses RANKL-induced osteoclast formation by attenuating the JNK signaling pathway. Biochem Biophys Res Commun 2014, 447 (2), 364-70; (c) Feng, R., et al., KD5170, a novel mercaptoketone-based histone deacetylase inhibitor, exerts antimyeloma effects by DNA damage and mitochondrial signaling. Mol Cancer Ther 2008, 7 (6), 1494-505.).

Row | Compound | CB2 functional activity (LANCE cAMP signal) [1] | effect on RANKL-induced osteoclast formation (in words) [2] | inhibition at 10 µM [2] [%]
1 | CCN(CC)c1ccc(CN(Cc2cc(OC)c(OC)c(OC)c2)C(=O)c2cccs2)cc1 [Compound 11, N-(4-(diethylamino)benzyl)-N-(3,4,5-trimethoxybenzyl)thiophene-2-carboxamide] | CB2 selective agonist | induction of osteoclast formation at higher doses; also recorded: low effect in inducing the osteoclast formation at higher doses | 
2 | CCN(CC)c1ccc(CN(Cc2cc(OC)c(OC)c(OC)c2)S(=O)(=O)/C=C/c2ccccc2)cc1 [Compound 15, (E)-N-(4-(diethylamino)benzyl)-2-phenyl-N-(3,4,5-trimethoxybenzyl)ethene-1-sulfonamidebenzenesulfonamide] | inverse agonists | concentration-dependent inhibition of osteoclast formation; also recorded: inhibited the RANKL-induced osteoclast differentiation in a dose-dependent manner | > 95
3 | CCN(CC)c1ccc(CN(Cc2cc(OC)c(OC)c(OC)c2)S(=O)(=O)c2ccc(C=O)cc2)cc1 [Compound 18, N-(4-(diethylamino)benzyl)-4-formyl-N-(3,4,5-trimethoxybenzyl)benzenesulfonamide] | inverse agonists | concentration-dependent inhibition of osteoclast formation; also recorded: inhibited the RANKL-induced osteoclast differentiation in a dose-dependent manner | > 95
